# Measured values taken from US9302967B2, “Substituted cathechols as inhibitors of IL-4 and IL-5 for the treatment of bronchial asthma” (Council of Scientific & Industrial Research, priority 2011, dated 2016).
# How the values were obtained:
# IL-4 = assay: PHA-stimulated human PBMC, IL-4 in supernatant by Cytometric Bead Array; assay type: cell-based; details: PHA 10 μg/ml, read-out: IC50 inhibitory activity, stimulation-induced IL-4
# Description: (§1) Normal human peripheral blood mononuclear cells (PBMC) were stimulated with phytohemagglutinin (PHA) 10 μg/ml in the presence and absence of varying concentrations of compounds of formula I and II. Culture supernatants were harvested and IIL-4 and IL-5 cytokines were quantitated by Cytometric Bead Array (CBA™) kit (Becton Dickinson, USA) following manufacturers instructions using a Flow Cytometer (BD LSR, Becton Dickinson) and CBA™ analysis software (Becton Dickinson).
# IL-5 = assay: PHA-stimulated human PBMC, IL-5 in supernatant by Cytometric Bead Array; assay type: cell-based; details: Homo sapiens, PHA 10 μg/ml, read-out: IC50 inhibitory activity, stimulation-induced IL-5
# Description: as §1
Structure (SMILES),IC50 (IL-4),IC50 (IL-5),melting point
"C=CCc1ccc(OC(C)=O)c(OC(C)=O)c1 [Compound 7, 4-allyl-1,2-phenylene diacetate]",4 µM,4 µM,
"C=CCc1cccc(OC(C)=O)c1OC(C)=O [Compound 19, 3-allyl-1,2-phenylene diacetate]",30 µM,35 µM,58 to 60 °C
"C=CCc1cccc(O)c1O [Compound 16, 3-allyl-benzene-1,2-diol]",30 µM,30 µM,
